Test results: patent US4051237A, “Glycopeptide antibiotics Bu-2231 A and B and process for producing same” (priority 1975, dated 1977)
Like-named read-outs stand apart in the source and are kept apart here.

Columns and labels:
[1] = test system: Walker 256 carcinosarcoma in ascitic form; settings: for Effect MST %T/C / MST Days / Survivors Day 5 / Average Weight Change: Exp. #5501; for MST Days: Bu-2231 A and B as copper-free formate salts; for Survivors Day 5: toxicity evaluation; for Average Weight Change: recorded Day 5; for fold greater potency (vs bleomycin): Table II, copper-free formate salts;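 for all read-outs here: female SD rats bearing intraperitoneally implanted ascites tumor cells, treated ip once a day for 8 days beginning on Day 1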
Lewis Lung carcinoma = settings: for Effect MST %T/C / MST Days / Survivors Day 5: Exp. #55; for Survivors Day 5: toxicity evaluation
[2] = test system: Bacillus subtilis PCI-219; assay: Paper disc-agar diffusion method
[3] = mice, sc, up to a dose of 50 mg./kg.
Description: The acute toxicity of copper-free Bu-2231 A and B was determined in mice by a single subcutaneous injection. Groups of 3 mice were used for each dose level and the body weight was recorded for 16 days.

[4] = 10 mcg/kg/day ip once daily for 8 days
[5] = 40 mcg/kg/day ip once daily for 8 days
[6] = 160 mcg/kg/day ip once daily for 8 days
[7] = 640 mcg/kg/day ip once daily for 8 days
[8] = 0.5 mg/kg/day ip once daily for 9 days
[9] = 1 mg/kg/day ip once daily for 9 days
[10] = 2 mg/kg/day ip once daily for 9 days
[11] = 4 mg/kg/day ip once daily for 9 days
[12] = 8 mg/kg/day ip once daily for 9 days

SMILES	Effect MST %T/C [1, 4] [%]	MST Days [1, 4] [days]	Survivors Day 5 ([1]; 10 mcg/kg/day)	Effect MST %T/C [1, 5] [%]	MST Days [1, 5] [days]	Survivors Day 5 ([1]; 40 mcg/kg/day)	Effect MST %T/C [1, 6] [%]	MST Days [1, 6] [days]	Average Weight Change ([1]; 160 mcg/kg/day)	Survivors Day 5 ([1]; 160 mcg/kg/day)	Effect MST %T/C [1, 7] [%]	MST Days [1, 7] [days]	Survivors Day 5 ([1]; 640 mcg/kg/day)	fold greater potency (vs bleomycin) [1] [fold]	Effect MST %T/C (Lewis Lung carcinoma; [8]) [%]	MST Days (Lewis Lung carcinoma; [8]) [days]	Survivors Day 5 (Lewis Lung carcinoma; 0.5 mg/kg/day)	Effect MST %T/C (Lewis Lung carcinoma; [9]) [%]	MST Days (Lewis Lung carcinoma; [9]) [days]	Survivors Day 5 (Lewis Lung carcinoma; 1 mg/kg/day)	further results
Cc1c(N)nc([C@H](CC(N)=O)NC[C@H](N)C(N)=O)nc1C(=O)N[C@H](C(=O)N[C@H](C)[C@@H](O)CC(=O)N[C@H](C(=O)NC(O[C@@H]1O[C@@H](C)[C@@H](N)[C@@H](O)[C@H]1O)C(O)c1nc(-c2nc(C(=O)NCCCC(N)CC(=O)NCCCNCCCCN)cs2)cs1)[C@@H](C)O)[C@H](O[C@@H]1O[C@@H](CO)[C@@H](O)[C@H](O)[C@@H]1O[C@H]1O[C@H](CO)[C@@H](O)[C@H](OC(N)=O)[C@@H]1O)c1c[nH]cn1 (stereo partly shown) [Bu-2231 A]	129	9.0	6/6	157	11.0	6/6	179	12.5	+28.8 g.	6/6	250	17.5	6/6	4	120	26.5	6/6	123	27.0	6/6	activity against Lewis Lung Carcinoma (T/C >= 125 criterion) (Lewis Lung carcinoma; 1 mg./kg.): just below an active level; Effect MST %T/C (Lewis Lung carcinoma; [10]): 114%; MST Days (Lewis Lung carcinoma; [10]): 25.0 days; Survivors Day 5 (Lewis Lung carcinoma; 2 mg/kg/day): 6/6; Effect MST %T/C (Lewis Lung carcinoma; [11]): 32%; MST Days (Lewis Lung carcinoma; [11]): 7.0 days; Survivors Day 5 (Lewis Lung carcinoma; 4 mg/kg/day): 6/6; Effect MST %T/C (Lewis Lung carcinoma; [12]): 27%; MST Days (Lewis Lung carcinoma; [12]): 6.0 days; Survivors Day 5 (Lewis Lung carcinoma; 8 mg/kg/day): 6/6; solubility (ethanol): slightly soluble; solubility (methanol): soluble; solubility (other organic solvents): practically insoluble; solubility (water): soluble; activity against B. subtilis PCI-219 [2]: active
Cc1c(N)nc([C@H](CC(N)=O)NC[C@@H](N)C(N)=O)nc1C(=O)N[C@H](C(=O)N[C@H](C)[C@@H](O)CC(=O)N[C@@H](C(=O)NC(O[C@@H]1O[C@@H](C)[C@@H](N)[C@@H](O)[C@H]1O)C(O)c1nc(-c2nc(C(=O)NCCCNCCCCN)cs2)cs1)[C@@H](C)O)C(O[C@@H]1O[C@@H](CO)[C@H](O)[C@@H](O)[C@@H]1O[C@H]1O[C@H](CO)[C@@H](O)[C@@H](OC(N)=O)[C@@H]1O)c1cnc[nH]1 (stereo partly shown) [Bu-2231 B]	114	8.0	6/6	157	11.0	6/6	186	13.0	+36.5 g.	6/6	186	13.0	6/6	4	102	22.5	6/6	134	29.5	6/6	Average Weight Change ([1]; 10 mcg/kg/day): +36.5 g.; Average Weight Change ([1]; 640 mcg/kg/day): +10.7 g.; Effect MST %T/C (Lewis Lung carcinoma; [10]): 136%; MST Days (Lewis Lung carcinoma; [10]): 30.0 days; Survivors Day 5 (Lewis Lung carcinoma; 2 mg/kg/day): 6/6; Effect MST %T/C (Lewis Lung carcinoma; [11]): 48%; MST Days (Lewis Lung carcinoma; [11]): 10.5 days; Survivors Day 5 (Lewis Lung carcinoma; 4 mg/kg/day): 6/6; Effect MST %T/C (Lewis Lung carcinoma; [12]): 27%; MST Days (Lewis Lung carcinoma; [12]): 6.0 days; Survivors Day 5 (Lewis Lung carcinoma; 8 mg/kg/day): 5/6; activity against Lewis Lung Carcinoma (T/C >= 125 criterion) (Lewis Lung carcinoma; doses of 2 and 1 mg./kg.): active; solubility (ethanol): slightly soluble; solubility (methanol): soluble; solubility (other organic solvents): practically insoluble; solubility (water): soluble; activity against B. subtilis PCI-219 [2]: active; death in acute toxicity test [3]: No death occurred
